In article PMC2933614, “Quantitative in vitro and in vivo pharmacological profile of CE-178253, a potent and selective cannabinoid type 1 (CB1) Receptor Antagonist” (BMC Pharmacology, 2010):
“Also recorded” adds a separate entry of the source.

How the values were obtained:
[1] = target: T1, rat brain membranes (predominantly CB1) (Rattus norvegicus, UniProt P20272); assay: Competition radioligand binding, rat brain membranes
T1 construct: In rat membranes prepared from whole brain; from tissue; host or cells: rat whole brain membranes
Experimental: (§1) HEK293 (CB1) or CHO (CB1 and CB2) cells (ATCC) were stably transfected with the human CB1 or CB2 receptors. Rat brain, and recombinant CB1 and CB2 and membranes were prepared as described. A Pierce™ BCA kit was used to determine protein concentrations.
(§2) 10 μg of membranes per well from human CB1 and CB 2 receptor transfected cells and rat brain was used in the assay. The plates were covered and placed in an incubator at 30°C for 60 min. At the end of the incubation period 125 μl of stop buffer (10% BSA plus TME) was added to the reaction plate. The plates were then harvested onto GF/C filter plates (Perkin Elmer Life Sciences) presoaked in BSA (5 mg/ml) plus TME. Each filter was washed twice with TME and dried overnight. In the morning the filters were counted on a Wallac Trilux™ counter.
(§3) Saturation and competition radioligand binding assays were used to characterize membranes prepared from human recombinant CB1 and CB2 and rat brain membranes.

human CB1 receptor = target: T2, human CB1 receptor (Homo sapiens, UniProt P21554); assay: Competition radioligand binding, human CB1
T2 construct: expressed in transfected cells
Experimental: as §1, §2, §3

human CB2 receptor = target: T3, human CB2 receptor (Homo sapiens, UniProt P34972); assay: Competition radioligand binding, human CB2
T3 construct: expressed in transfected cells
Experimental: as §1, §2, §3

[2] = system: other receptors, ion channels, and uptake sites (Table 2); assay: Binding panel at 1 μM; conditions: any site of Table 2
Text: (§4) Rimonabant also binds weakly to the Vanilloid 1 (TRPV1) receptor channel. […] CE-178253 was not evaluated against TRPM8. Rimonabant has been reported to bind to TRPM8 [21].

GPR55 = GPR55 (Homo sapiens, UniProt Q9Y2T6); assay: GPR55 functional assay; format: biochemical; conditions: 10 μM
Text: as §4

[3] = Spontaneous nocturnal food intake; format: in vivo, rat; conditions: for Decrease in FI compared to veh.: 2 hr time point
Text: (§5) All animal studies were approved by the Institutional Animal Care and Use Committee. Male Sprague Dawley rats on normal chow (8 weeks old, 250-300 g on arrival, 300-350 g on test day) were obtained from Charles River. After arrival, animals were individually housed and placed on powdered rat chow. Rats were maintained on a 12-hr light/dark cycle and received food and water ad libitum. In all studies CE-178253 and veh (0.5% methyl cellulose) administration to rats and mice was by oral gavage.
For the spontaneous, nocturnal FI assay, rats were administered veh. (0.5% methyl cellulose) or CE-178253 30 min prior to the start of the dark phase. Food consumption was monitored with electronic scales, and consumption was recorded every 10 min for 12 hr using an automated FI system (Columbus Instruments, Columbus, OH).
The first FI model used for determining anorectic efficacy of CE-178253 was spontaneous nocturnal feeding in rats. In rodents, most feeding activity takes place during the dark phase (nocturnal feeding cycle). In this model, male S-D rats were orally administered compound 30 min prior to the onset of the nocturnal phase. […] In addition, the effect of treatment on hourly FI was also assessed. […] No other time points in the interval analysis reach statistical significance. […] Cumulative food intake at the 2.5 hr time point was 3.2 ± 0.3, 2.4 ± 0.2, 0.5 ± 0.1 and 0.2 ± 0.1 in the veh, 0.3 mg/kg, 1 mg/kg, 3 mg/kg treated rats, respectively.

[4] = Fast-induced re-feeding food intake; format: in vivo, rat; conditions: for Food Intake % decrease (mean ± SEM): 2 hr after return of food
Text: as §5
For the fast-induced re-feeding assay, food was removed from the cages the afternoon preceding the test day and the rats were fasted overnight. After the overnight fast, rats were administered veh. or CE-178253. […]
Administration of CE-178253 to male S-D rats inhibited overnight fast-induced refeeding. S-D rats were fasted overnight and veh. (0.5% methylcellulose; MC) or CE-178253 was administered orally. Food was provided to the rats 30 min after dosing. Food intake was measured 30 min and 2 hr after return of food. Dose- and unbound plasma concentration-dependent decreases in cumulative FI versus veh. were observed (Figure 4A, B, Table 3) at both time points after return of food. However, the efficacy (as a percent) was greater in the 0.5-2 hr interval than in the first 0.5 interval. In contrast, FI efficacy in the dark-phase feeding was consistent throughout the first four hr (Figure 3B).

[5] = Ten day DIO mouse food intake and body weight study; format: in vivo; conditions: 10-day, DIO mice
Experimental: Male, 14 week old C57/Bl6/6J mice which had been maintained on a high fat diet (45% kcal from fat) for 6 weeks were selected for the DIO weight loss study. The animals body weights ranged at least 5 standard deviations from age-matched chow-fed control animals mean body weight. Mice were singly housed. The mean starting weight of all animals was 38.9 ± 0.5 g. On Day 0, mice were randomly assigned to treatment groups (n = 10 per group). Mice were dosed daily over 10 days, starting approximately at 30 minutes before the start of the 12 hr dark cycle. BW and food intake were recorded daily.
DIO mice were treated once daily with veh. (0.5% MC) or CE-178253 at 1 mg/kg or 3 mg/kg, p.o., in a 10-day study (Figures 8A and 8B). […] The lower dose of CE-178253 (1 mg/kg, p.o.) provided for a non-significant 8% reduction in FI, whereas the 3 mg/kg dose led to a significant 31% reduction in cumulative FI. As with other CB1 receptor antagonists, the food intake reduction was maximal over the first five days and declined over time (Figure 8A). However, FI reductions were still evident on the final day of dosing at the high dose. […] The high dose group (3 mg/kg) lost, on average 18% BW.

T3 sequence (P34972 whole entry): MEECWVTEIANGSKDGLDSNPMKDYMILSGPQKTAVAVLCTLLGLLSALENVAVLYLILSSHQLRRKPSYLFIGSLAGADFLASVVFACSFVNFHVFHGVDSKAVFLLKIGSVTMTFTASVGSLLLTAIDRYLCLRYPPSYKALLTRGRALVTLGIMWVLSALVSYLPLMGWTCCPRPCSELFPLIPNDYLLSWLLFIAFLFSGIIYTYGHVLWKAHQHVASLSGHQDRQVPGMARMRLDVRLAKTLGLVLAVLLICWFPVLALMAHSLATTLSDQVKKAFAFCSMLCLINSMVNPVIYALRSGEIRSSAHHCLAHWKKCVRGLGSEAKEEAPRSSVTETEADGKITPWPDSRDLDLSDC
T2 sequence (P21554 whole entry): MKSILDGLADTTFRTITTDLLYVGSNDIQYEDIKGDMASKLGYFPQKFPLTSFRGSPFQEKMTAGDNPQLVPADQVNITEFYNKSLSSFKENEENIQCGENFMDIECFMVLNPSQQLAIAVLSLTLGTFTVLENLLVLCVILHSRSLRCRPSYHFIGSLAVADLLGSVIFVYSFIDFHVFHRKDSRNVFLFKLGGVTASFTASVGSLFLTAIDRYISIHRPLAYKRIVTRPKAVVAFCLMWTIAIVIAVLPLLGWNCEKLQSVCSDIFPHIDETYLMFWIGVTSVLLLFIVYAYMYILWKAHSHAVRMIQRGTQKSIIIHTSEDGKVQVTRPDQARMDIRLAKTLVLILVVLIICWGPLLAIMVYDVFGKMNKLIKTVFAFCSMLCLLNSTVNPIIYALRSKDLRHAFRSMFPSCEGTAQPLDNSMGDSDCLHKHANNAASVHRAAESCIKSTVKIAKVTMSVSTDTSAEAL
GPR55, sequence (Q9Y2T6 whole entry, species assumed): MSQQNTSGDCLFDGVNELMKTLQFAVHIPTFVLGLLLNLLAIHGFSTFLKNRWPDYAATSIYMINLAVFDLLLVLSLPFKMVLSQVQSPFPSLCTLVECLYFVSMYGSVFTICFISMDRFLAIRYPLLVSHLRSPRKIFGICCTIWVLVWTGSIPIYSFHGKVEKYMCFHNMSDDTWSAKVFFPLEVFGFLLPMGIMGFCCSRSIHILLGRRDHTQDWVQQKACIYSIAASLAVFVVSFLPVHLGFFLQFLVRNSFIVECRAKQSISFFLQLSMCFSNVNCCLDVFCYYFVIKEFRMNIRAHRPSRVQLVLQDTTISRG
T1 sequence (P20272 whole entry): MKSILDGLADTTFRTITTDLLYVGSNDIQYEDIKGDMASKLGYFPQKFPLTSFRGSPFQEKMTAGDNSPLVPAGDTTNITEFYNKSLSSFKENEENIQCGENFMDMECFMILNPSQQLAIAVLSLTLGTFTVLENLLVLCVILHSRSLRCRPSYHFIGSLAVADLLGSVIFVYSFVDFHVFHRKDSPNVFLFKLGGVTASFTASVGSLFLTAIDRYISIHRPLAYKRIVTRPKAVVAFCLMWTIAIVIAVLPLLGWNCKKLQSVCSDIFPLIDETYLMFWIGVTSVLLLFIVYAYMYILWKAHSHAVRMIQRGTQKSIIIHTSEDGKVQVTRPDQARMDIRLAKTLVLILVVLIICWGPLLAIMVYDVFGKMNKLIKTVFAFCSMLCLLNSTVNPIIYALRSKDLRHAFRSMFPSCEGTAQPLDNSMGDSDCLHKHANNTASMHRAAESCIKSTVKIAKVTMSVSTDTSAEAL

Ki [1]: 0.43 ± 0.13 nM
Concentration giving complete inhibition of [3H]SR141716A binding (human CB1 receptor; not shown): greater than 10 nM
Ki (human CB1 receptor; read-out: Ki, competition binding, hCB1): 0.33 ± 0.07 nM
Ki (human CB2 receptor; [3H]CP-55940, ± SEM (n), read-out: Ki, competition binding, hCB2): 15700 ± 6170 nM
Selectivity (hCB2 vs hCB1 binding Ki) (human CB2 receptor; difference in binding Ki values): > 30,000 fold
Inhibition of binding at panel sites [2]: ≤ 50%
EC50 ([3]; Rattus norvegicus, unbound plasma concentration (Cave, fu, p, 0-2.5 hr), cumulative FI at 2.5 hr post dose, read-out: Unbound EC50, reduction of food intake): 0.5 nM
EC50 ([4]; Rattus norvegicus, […], read-out: EC50, reduction of food intake): 0.95 nM
SMILES: CCNC1(C(N)=O)CN(c2nc(C)nc3c(-c4ccc(Cl)cc4)c(-c4ccccc4Cl)nn23)C1 [CE-178253]
Agonist activity at GPR55 (GPR55): No agonist activity was detected; also recorded: GPR55 (no activity at 10 μM)
Decrease in FI compared to veh. ([3]; 0.3 mg/kg p.o.): 25%
Decrease in FI compared to veh. ([3]; 1 mg/kg p.o.): 84%
Decrease in FI compared to veh. ([3]; 3 mg/kg p.o.): 94%
Food Intake % decrease (mean ± SEM) ([4]; 0.3 mg/kg p.o.): 6 ± 3%
Food Intake % decrease (mean ± SEM) ([4]; 1 mg/kg p.o.): 25 ± 11%
Food Intake % decrease (mean ± SEM) ([4]; 3 mg/kg p.o.): 62 ± 5.2 %
Food Intake % decrease (mean ± SEM) ([4]; 10 mg/kg p.o.): 75 ± 6.2 %
Reduction in FI ([4]; interval between dosing and return of food extended to 2 hr, at 50% receptor occupancy, p < 0.05): 27%
Maximal FI reduction ([4]; two hr): 70%
Reduction in cumulative FI ([5]; 1 mg/kg p.o. once daily, non-significant): 8%
BW lost, on average ([5]; 3 mg/kg p.o. once daily): 18%
Reduction in cumulative FI ([5]; 3 mg/kg p.o. once daily, significant): 31%
